Experimental data published in US20100311756A1, “METHODS FOR DELAYING THE PROGRESSION OF AT LEAST ONE OF CARDIAC HYPERTROPHY, CARDIAC REMODELING OR LEFT VENTRICULAR FUNCTION OR THE ONSET OF HEART FAILURE IN SUBJECTS IN NEED OF TREATMENT THEREOF” (TAKEDA PHARMACEUTICALS NORTH AMERICA, INC., priority 2009, published 2010).
Marks after values point to notes of the source that are not given here.

Key:
[1] = test system: mice subjected to TAC or sham surgery; test: TAC or sham surgery in mice, Protocol 2: febuxostat or allopurinol for three weeks beginning seven days after TAC; type: in vivo; details: for Anterior wall thickness at end-diastole / Anterior wall thickness at end-systole / LV ejection fraction / LV end-diastolic diameter / LV end-systolic diameter / LV fractional shortening / Lung weight / Lung/body weight / Posterior wall thickness at end-diastole / Posterior wall thickness at end-systole / Ventricle weight / Ventricle/body weight: drinking water (FBS 0.05 mg/ml, allopurinol 0.15 mg/ml) three weeks from day 7; for Survival rate: over the three-week treatment period; for TAC-induced ventricular fibrosis: histological staining
From the text: • Mice. Male C57/BL6 mice at 8-9 weeks of age were purchased from Jackson Laboratories (Bar Harbor, Me.) for use in this study. Mice were housed in an air-conditioned room with a 12-hour:12-hour light-dark cycle, received standard mouse chow, and drank tap water. This study was approved by the Institutional Animal Care and Use Committee of the University of Minnesota. • Experimental Protocol 1. This protocol was designed to determine whether febuxostat (2-[3-cyano-4-(2-methylpropoxy)phenyl]-4-methylthiazole-5-carboxylic acid) treatment, beginning immediately after the onset of acute pressure overload, could protect against transverse aortic constriction (TAC)-induced left ventricular (LV) hypertrophy, dysfunction and mortality. Three treatment groups were included (See Table 1, below): sham-operated mice (n=20), TAC mice treated with vehicle (0.5% methylcellulose) (n=30), and TAC mice treated with febuxostat (suspension in 0.5% methylcellulose) (n=30). To generate LV hypertrophy in a short time period with a significant incidence of cardiac mortality, TAC was created by ligating the transverse aorta against a 27 G needle to create severe LV pressure overload. Since mice tend to take in less water and food during the first 1-3 days after the TAC procedure, febuxostat (5 mg/kg/day in 250 μl vehicle) or vehicle (250 μl) was administered daily by oral gavage for a total of 8 days, with the first dose administered on the day of the surgery after the animal awoke from anesthesia (˜60 min after the TAC procedure). On the eighth day, LV function was assessed by echocardiography approximately 1 hour after the last febuxostat or vehicle dose. Approximately 3 hours after echocardiographic evaluation (4 hours after the last febuxostat or vehicle dose), the mice were weighed and blood samples collected. The animals were euthanized and the heart and lungs excised; the right and left atria were trimmed away, and the ventricles and lungs were weighed. Tissue from the left ventricle was used for histological evaluation and Western blots. • Experimental Protocol 2. This protocol was designed to determine whether administration of febuxostat (FBS) or allopurinol (AL) beginning after the onset of cardiac hypertrophy, LV dysfunction and heart failure could exert a protective effect. For this protocol, mice subjected to TAC (using a 26 gauge (G) needle to generate moderate TAC) or sham surgery were divided into six experimental groups as described in Table 1, below. Beginning seven days after TAC, animals were treated with vehicle (0.01 mg/ml NaCl, equivalent salt content as in the FBS drinking water), FBS (0.05 mg/ml) or AL (0.15 mg/ml) in drinking water for three weeks. Following three weeks of treatment, ventricular function was assessed by echocardiography. Blood samples and cardiac tissue were collected during 2-3 hours after the echocardiographic evaluation as described previously in Protocol 1.
• Minimally Invasive TAC Procedure. TAC was performed using the minimally invasive suprasternal approach described by Hu et al. (See, Hu et al., Am. J. Physiol. Heart Circ. Physiol., 3:H1261-9 (2003)). Mice were anesthetized with a mixture of 80 mg/kg ketamine and 30 mg/kg xylazine intraperitoneally. A horizontal incision was made at the level of the suprasternal notch to allow direct visualization of the transverse aorta without entering the pleural space. With the aid of a dissecting microscope, aortic constriction was performed by ligating the aorta between the right innominate artery and the left carotid artery over a 27 G) needle using 5-0 silk suture. The needle was immediately removed after ligation, leaving the aortic constriction in place. The incision was closed and the animals were allowed to recover. Analgesia was provided before the mice awoke from anesthesia. Sham surgery utilized the same procedure but without aortic ligation. • Echocardiography.

[2] = Schumacher, Expert Opin. Invest. Drugs 2005; cited from earlier work
[3] = sham-operated mice, three-week treatment
[4] = sham-operated mice, three-week treatment, versus vehicle

Row | Compound | Anterior wall thickness at end-diastole ([1]; TAC mice) | Anterior wall thickness at end-systole ([1]; TAC mice) | LV ejection fraction ([1]; TAC mice) | Lung weight ([1]; TAC mice) | Lung/body weight ([1]; TAC mice) | Posterior wall thickness at end-diastole ([1]; TAC mice) | Posterior wall thickness at end-systole ([1]; TAC mice) | Ventricle weight ([1]; TAC mice) | Ventricle/body weight ([1]; TAC mice) | Survival rate ([1]; TAC mice) | Plasma uric acid ([1]; TAC mice, three-week treatment) | TAC-induced ventricular fibrosis ([1]; TAC mice, three-week treatment) | Anterior wall thickness at end-diastole ([1]; sham mice) | Anterior wall thickness at end-systole ([1]; sham mice) | LV ejection fraction ([1]; sham mice) | LV fractional shortening ([1]; sham mice) | Lung/body weight ([1]; sham mice) | Posterior wall thickness at end-diastole ([1]; sham mice) | Posterior wall thickness at end-systole ([1]; sham mice) | Ventricle/body weight ([1]; sham mice) | further results
1 | Oc1ncnc2[nH]ncc12 [allopurinol] | 0.87 ± 0.02^a mm | 1.20 ± 0.03^a mm | 60.2 ± 2.2^a % | 166 ± 16 mg | 6.98 ± 0.94 mg/g | 0.88 ± 0.02^a mm | 1.20 ± 0.03^a mm | 153 ± 6^a mg | 6.27 ± 0.36^a mg/g | 76% | decreased | not affected | 0.74 ± 0.01 mm | 1.11 ± 0.04 mm | 77.7 ± 2.1% | 40.1 ± 2.0% | 5.40 ± 0.14 mg/g | 0.74 ± 0.01 mm | 1.11 ± 0.03 mm | 4.13 ± 0.12 mg/g | LV end-diastolic diameter ([1]; TAC mice): 4.21 ± 0.08^a mm; LV end-systolic diameter ([1]; TAC mice): 3.09 ± 0.10^a mm; LV fractional shortening ([1]; TAC mice): 26.8 ± 1.4^a %; Lung/body weight ([1]; TAC mice, listed as AL): no significant effect; Ventricle/body weight ([1]; TAC mice, listed as AL): no significant effect; LV function and dimensions (echocardiography) ([1]; TAC mice, three-week treatment, versus vehicle-treated TAC mice): no effect; LV end-diastolic diameter ([1]; sham mice): 3.71 ± 0.06 mm; LV end-systolic diameter ([1]; sham mice): 2.22 ± 0.07 mm; Lung weight ([1]; sham mice): 131 ± 3 mg; Ventricle weight ([1]; sham mice): 100 ± 3 mg; Lung weight ([1]; sham mice, listed as AL): no significant effects; Lung/body weight ([1]; sham mice, listed as AL): no significant effects; Ventricle weight ([1]; sham mice, listed as AL): no significant effects; Ventricle/body weight ([1]; sham mice, listed as AL): no significant effects; LV function and dimensions (any of the parameters evaluated by echocardiography) [1, 3]: no effect; Plasma uric acid [1, 3]: significantly decreased; Route of elimination [2]: mainly cleared by the kidneys
2 | Cc1nc(-c2ccc(OCC(C)C)c(C#N)c2)sc1C(=O)O [febuxostat, 2-[3-cyano-4-(2-methylpropoxy)phenyl]-4-methylthiazole-5-carboxylic acid] | 0.85 ± 0.02^a mm | 1.19 ± 0.02^a mm | 63.9 ± 1.9^a % | 170 ± 17 mg | 6.59 ± 0.64 mg/g | 0.84 ± 0.02^a mm | 1.18 ± 0.02^a mm | 158 ± 6^a mg | 6.11 ± 0.21^a mg/g | 96% | decreased | not affected | 0.72 ± 0.02 mm | 1.18 ± 0.04 mm | 85.5 ± 1.6^a % | 48.3 ± 2.2^a % | 5.42 ± 0.11 mg/g | 0.72 ± 0.02 mm | 1.18 ± 0.04^a mm | 3.94 ± 0.07 mg/g | LV end-diastolic wall thickness ([1]; TAC mice, three-week treatment): unchanged; TAC-induced cardiac myocyte hypertrophy ([1]; TAC mice, three-week treatment): no effect; Improvement (increase) of LV ejection fraction ([1]; TAC mice, three-week treatment, versus vehicle): ~10%; End-diastolic wall thickness [1, 3]: did not change; Plasma uric acid [1, 3]: significantly decreased; Increase in LV ejection fraction [1, 4]: ~9%; Increase in LV fractional shortening [1, 4]: ~15%; Route of elimination [2]: hepatic metabolism
